Assay results published in patent publication US11319283B2, “Substituted cyclobutylbenzene compounds as indoleamine 2,3-dioxygenase (IDO) inhibitors” (MERCK SHARP & DOHME CORP., priority 2017, dated 2022).
pIC50: −log10 of the molar value.

Experiments:
IDO1 = IDO1 (Homo sapiens, UniProt P14902); experiment: IDO1 Cellular Assay in Hela Cells Stimulated with IFNγ; assay type: cell-based; set-up: endogenous in cells; host or cells: HeLa cells stimulated with IFNγ (100 ng/mL); settings: Hela cells stimulated with IFNγ 100 ng/mL, 300 uM L-tryptophan, about 48 hours, fluorescence readout
Chain of IDO1 (P14902 whole entry): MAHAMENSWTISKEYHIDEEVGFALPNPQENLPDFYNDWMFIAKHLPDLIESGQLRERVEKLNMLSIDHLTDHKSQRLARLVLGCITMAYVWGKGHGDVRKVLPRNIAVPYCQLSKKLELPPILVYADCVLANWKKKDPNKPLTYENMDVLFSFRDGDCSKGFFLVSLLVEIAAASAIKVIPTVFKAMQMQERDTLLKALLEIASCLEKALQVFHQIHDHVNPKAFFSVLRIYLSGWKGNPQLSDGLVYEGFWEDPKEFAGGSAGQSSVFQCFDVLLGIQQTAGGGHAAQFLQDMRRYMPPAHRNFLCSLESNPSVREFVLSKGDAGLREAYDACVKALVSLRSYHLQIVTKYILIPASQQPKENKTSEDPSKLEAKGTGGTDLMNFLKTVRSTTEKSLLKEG
Description: IDO1 Cellular Assay in Hela Cells Stimulated with IFNγ
Hela cells were cultured in complete Hela culture medium (90% EMEM, 10% heat-inactivated fetal bovine serum) and expanded to about 1×10^9 cells. The cells were then collected and frozen down at 1×10^7 cells/vial in 1 mL frozen medium (90% complete Hela culture medium, 10% DMSO)
Compounds to be tested were serially diluted in ten 3-fold steps in DMSO starting from 10 mM DMSO stocks in Echo low volume plate(s).
Frozen Hela cells were thawed and transferred into Hela assay medium (99% complete Hela culture medium, 1% Pen/Strep) with 20 mL medium/vial of cells. The cells were spun down at 250 g in a table top centrifuge for 5 min and suspended in same volume of Hela assay medium. The cells were then counted and adjusted to a density of 2×10^5 cells/ml in Hela assay medium. Sterile L-tryptophan were added to the cells with final concentration of 300 uM L-tryptophan. A small aliquot (2 mL/plate) of Hela cells were set aside and were not treated with IFNγ, to serve as the Max-E control.
Hela cells with and without IFNγ were dispensed to the respective wells of 384-well assay plates containing the compounds. The plates were incubated for about 48 hours at a 37° C., 5% CO2 incubator. Afterwards, […] of 0.5 M methyl isonipecotate in dimethyl sulfoxide were added into each well and the plates were sealed and incubated at 37° C. without CO2 overnight. The plates were centrifuged for 1 min at 200×g. The resulting fluorescence was measured in a Spectramax plate reader (Molecular Devices) with a 400 nm excitation filter and a 510 nm emission filter.
Potencies were calculated by linear least squares fit to the four parameter logistic IC50 equation.

TDO = target: T1, TDO (Homo sapiens, UniProt P48775); experiment: TDO Cellular Assay in Frozen SW48 Cells; assay type: cell-based; settings: 300 uM L-tryptophan, about 48 hours, fluorescence readout
T1 construct: endogenous in cells; host or cells: SW48 cells (A2780 cells as control with minimal TDO activity)
T1 sequence (P48775 whole entry): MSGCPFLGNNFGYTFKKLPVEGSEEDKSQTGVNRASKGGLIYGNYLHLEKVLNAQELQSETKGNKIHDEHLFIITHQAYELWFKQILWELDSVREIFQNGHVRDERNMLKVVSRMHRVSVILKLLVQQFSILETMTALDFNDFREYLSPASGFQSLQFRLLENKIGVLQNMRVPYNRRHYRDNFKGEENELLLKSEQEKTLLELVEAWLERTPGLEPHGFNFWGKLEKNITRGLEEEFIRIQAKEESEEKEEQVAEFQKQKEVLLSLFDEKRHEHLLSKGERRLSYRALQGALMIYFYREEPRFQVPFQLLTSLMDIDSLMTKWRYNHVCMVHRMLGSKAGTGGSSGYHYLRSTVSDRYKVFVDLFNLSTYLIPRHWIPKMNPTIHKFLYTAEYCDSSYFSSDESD
Description: TDO Cellular Assay in Frozen SW48 Cells
SW48 cells were cultured in complete RPMI culture medium (90% RPMI, 10% heat-inactivated fetal bovine serum).
Compounds to be tested were serially diluted in ten 3-fold steps in DMSO starting from 10 mM DMSO stocks in Echo low volume plate(s). […] The cells were spun down at 350 g in a table top centrifuge for 5 minutes and suspended in same volume of RPMI assay medium. […] Sterile L-tryptophan (Sigma, Cat # T0254) was added to the cells with final concentration of 300 uM.
SW48 and A2780 cells were dispensed to the respective wells of 384-well assay plates containing the compounds. The plates were incubated for about 48 hours at a 37° C., 5% CO2 incubator. Afterwards, 12 μL of 0.5 M ethyl isonipecotate (Sigma Aldrich, Cat # E33505) in dimethyl sulfoxide were added into each well and the plates were sealed and incubated at 37° C. without CO2 overnight. The plates were centrifuged for 1 minute at 200×g. The resulting fluorescence was measured in a Spectramax plate reader (Molecular Devices) with a 400 nm excitation filter and a 510 nm emission filter.
The fluorescence intensity of each well was corrected for the background observed in wells with A2780 cells and was expressed as a fraction of the intensity observed in wells of SW48 cells and DMSO only. Potencies were calculated by linear least squares fit to the four parameter logistic IC50 equation.

| pIC50 (IDO1) | pIC50 (TDO) | SMILES |
| --- | --- | --- |
| 8.10 | ≤ 5.00 | CCC1CC1NC(=O)C1(c2ccc(NC(=O)c3cccc(Cl)c3)cc2)CCC1 (centres unmarked) [Example 31, 3-chloro-N-(4-{1-[(2-ethylcyclopropyl)carbamoyl]cyclobutyl}phenyl)benzamide] |
| 7.62 | ≤ 5.00 | CCOC1CC1NC(=O)C1(c2ccc(NC(=O)c3cccc(Cl)c3)cc2)CCC1 (centres unmarked) [Example 36, 3-chloro-N-(4-{1-[(2-ethoxycyclopropyl)carbamoyl]cyclobutyl}phenyl) benzamide] |
| 7.55 | ≤ 5.00 | O=C(Nc1ccc(C2(C(=O)NC3CC3C(F)F)CCC2)cc1)c1cccc(Cl)c1 (centres unmarked) [Example 37, 3-chloro-N-[4-(1-{[2-(difluoromethyl)cyclopropyl]carbamoyl}cyclobutyl)phenyl] benzamide] |
| 7.41 | ≤ 5.00 | O=C(Nc1ccc(C2(C(=O)NC3CCCOC3)CCC2)cc1)c1cccc(Cl)c1 (centres unmarked) [Example 40, 3-chloro-N-(4-{1-[(oxan-3-yl)carbamoyl]cyclobutyl}phenyl)benzamide] |
| 6.92 | ≤ 5.00 | CC1(C)CC(NC(=O)C2(c3ccc(NC(=O)c4cccc(Cl)c4)cc3)CCC2)CCO1 (centres unmarked) [Example 42, 3-chloro-N-(4-{1-[(2,2-dimethyloxan-4-yl)carbamoyl]cyclobutyl}phenyl)benzamide] |
| 6.15 | ≤ 5.00 | O=C(Nc1ccc(C2(C(=O)NC3CN(CC(F)(F)F)C3)CCC2)cc1)c1cccc(Cl)c1 [Example 44, 3-chloro-N-[4-(1-{[1-(2,2,2-trifluoroethyl)azetidin-3-yl]carbamoyl}cyclobutyl)phenyl]benzamide] |
| 7.24 | ≤ 5.00 | CCOC(C)CNC(=O)C1(c2ccc(NC(=O)c3cccc(Cl)c3)cc2)CCC1 (centres unmarked) [Example 45, 3-Chloro-N-(4-(1-((2-ethoxypropyl)carbamoyl)cyclobutyl)phenyl)benzamide] |
| 6.90 | ≤ 5.00 | O=C(Nc1ccc(C2(C(=O)NCC(F)(F)F)CCC2)cc1)c1cccc(Cl)c1 [Example 49, 3-chloro-N-(4-{1-[(2,2,2-trifluoroethyl)carbamoyl]cyclobutyl}phenyl) benzamide] |
| 6.39 | ≤ 5.00 | O=C(Nc1ccc(C2(C(=O)N[C@H]3CCOC3)CCC2)cc1)c1cccc(Cl)c1 [Example 51, 3-chloro-N-[4-(1-{[(3S)-oxolan-3-yl]carbamoyl}cyclobutyl)phenyl]benzamide] |
| 6.37 | ≤ 5.00 | O=C(Nc1ccc(C2(C(=O)N[C@@H]3CCOC3)CCC2)cc1)c1cccc(Cl)c1 [Example 52, 3-chloro-N-[4-(1-{[(3R)-oxolan-3-yl]carbamoyl}cyclobutyl)phenyl]benzamide] |
| 6.08 | ≤ 5.00 | O=C(Nc1ccc(C2(C(=O)NS(=O)(=O)c3ccccc3)CCC2)cc1)c1cccc(Cl)c1 [Example 53, 3-chloro-N-(4-{1-[(phenylsulfonyl)carbamoyl]cyclobutyl}phenyl) benzamide] |
| 7.77 | ≤ 5.00 | O=C(Nc1cccc(Cl)c1F)c1ccc(C2(C(=O)Nc3ccc(F)cn3)CCC2)cc1 [Example 59, N-(3-chloro-2-fluorophenyl)-4-(1-((5-fluoropyridin-2-yl)carbamoyl)cyclobutyl)benzamide] |
| 6.31 | ≤ 5.00 | O=C(NC1CCCCC1)c1ccc(C2(C(=O)Nc3ccc(F)cn3)CCC2)cc1 [Example 60, N-cyclohexyl-4-{1-[(5-fluoropyridin-2-yl)carbamoyl]cyclobutyl} benzamide] |
| 5.74 | ≤ 5.00 | O=C(NC1CCC(F)(F)CC1)c1ccc(C2(C(=O)Nc3ccc(F)cn3)CCC2)cc1 [Example 61, N-(4,4-difluorocyclohexyl)-4-{1-[(5-fluoropyridin-2-yl)carbamoyl]cyclobutyl} benzamide] |
| 7.43 | ≤ 5.00 | CCO[C@@H]1C[C@@H]1NC(=O)C1(c2ccc(NC(=O)c3cccc(Cl)c3)cc2)CC(F)(F)C1 [Example 64, 3-chloro-N-[4-(1-{[(1S,2R)-2-ethoxycyclopropyl]carbamoyl}-3,3-difluorocyclobutyl)phenyl] benzamide] |
| 7.15 | ≤ 5.00 | CCOC1CC1NC(=O)C1(c2ccc(NC(=O)c3cccc(Cl)c3)cc2)CC(F)(F)C1 (centres unmarked) [Example 65] |
| 7.05 | ≤ 5.00 | CCO[C@H]1C[C@H]1NC(=O)C1(c2ccc(NC(=O)c3cccc(Cl)c3)cc2)CC(F)(F)C1 [Example 66, 3-chloro-N-[4-(1-{[(1R,2S)-2-ethoxycyclopropyl]carbamoyl}-3,3-difluorocyclobutyl)phenyl] benzamide] |
| 6.68 | ≤ 5.00 | CCO[C@H]1C[C@@H]1NC(=O)C1(c2ccc(NC(=O)c3cccc(Cl)c3)cc2)CC(F)(F)C1 [Example 67, 3-chloro-N-[4-(1-{[(lS,2S)-2-ethoxycyclopropyl]carbamoyl}-3,3-difluorocyclobutyl)phenyl] benzamide] |
| 5.84 | ≤ 5.00 | CCO[C@@H]1C[C@H]1NC(=O)C1(c2ccc(NC(=O)c3cccc(Cl)c3)cc2)CC(F)(F)C1 [Example 68, 3-chloro-N-[4-(1-{[(1R,2R)-2-ethoxycyclopropyl]carbamoyl}-3,3-difluorocyclobutyl)phenyl] benzamide] |
| 7.25 | ≤ 5.00 | O=C(Nc1ccc(C2(C(=O)NCCC(F)(F)F)CC(F)(F)C2)cc1)c1cccc(Cl)c1 [Example 69, 3-chloro-N-(4-{3,3-difluoro-1-[(3,3,3-trifluoropropyl)carbamoyl]cyclobutyl}phenyl) benzamide] |
| 8.40 | ≤ 5.00 | O=C(Nc1ccc(C2(C(=O)Nc3ccc(F)cc3)CC(F)(F)C2)cc1)c1cccc(F)c1 [Example 72, N-(4-(3,3-Difluoro-1-((4-fluorophenyl)carbamoyl)cyclobutyl)phenyl)-3-fluorobenzamide] |
| 8.40 | ≤ 5.00 | N#Cc1cccc(C(=O)Nc2ccc(C3(C(=O)Nc4ccc(F)cc4)CC(F)(F)C3)cc2)c1 [Example 73, 3-cyano-N-(4-{3,3-difluoro-1-[(4-fluorophenyl)carbamoyl]cyclobutyl}phenyl) benzamide] |
| 8.30 | ≤ 5.00 | O=C(Nc1ccc(C2(C(=O)Nc3ccc(F)cc3)CC(F)(F)C2)cc1)c1cc(Cl)ccn1 [Example 74, 4-chloro-N-(4-{3,3-difluoro-1-[(4-fluorophenyl)carbamoyl]cyclobutyl}phenyl) pyridine-2-carboxamide] |
| 8.00 | ≤ 5.00 | O=C(Nc1ccc(C2(C(=O)Nc3ccc(F)cc3)CC(F)(F)C2)cc1)c1cncc(Cl)c1 [Example 75, 5-chloro-N-(4-{3,3-difluoro-1-[(4-fluorophenyl)carbamoyl]cyclobutyl}phenyl) pyridine-3-carboxamide] |
| 7.70 | 5.12 | O=C(Nc1ccc(C2(C(=O)Nc3ccc(F)cc3)CC(F)(F)C2)cc1)c1ccnc(C(F)(F)F)c1 [Example 76, N-(4-{3,3-difluoro-1-[(4-fluorophenyl)carbamoyl]cyclobutyl}phenyl)-2-(trifluoromethyl) pyridine-4-carboxamide] |
| 8.00 | ≤ 5.00 | CCCNC(=O)C1(c2ccc(NC(=O)c3ccc(F)c(Cl)c3)cc2)CCC1 [Example 78, 3-chloro-4-fluoro-N-{4-[1-(propylcarbamoyI)cyclobutyl]phenyl}benzamide] |
| 7.96 | ≤ 5.00 | CCCNC(=O)C1(c2ccc(NC(=O)c3cc(F)cc(Cl)c3)cc2)CCC1 [Example 79, 3-chloro-5-fluoro-N-{4-[1-(propylcarbamoyl)cyclobutyl]phenyl}benzamide] |
| 7.92 | ≤ 5.00 | CCCNC(=O)C1(c2ccc(NC(=O)c3cc(Cl)cc(Cl)c3)cc2)CCC1 [Example 80, 3,5-dichloro-N-{4-[1-(propylcarbamoyl)cyclobutyl]phenyl}benzamide] |
